Patent publication US12433853B2, “Rationally designed lawsone derivatives as antimicrobials against multidrug-resistant Staphylococcus aureus” (KENT STATE UNIVERSITY, priority 2019, dated 2025)
≈ marks a conversion by molar mass, not a printed value.

What was measured:
MRSA (ATCC BAA-44) [1] = assay: Checkerboard assay of 6c with oxacillin; format: cell-based, Staphylococcus aureus; conditions: 6c combined with oxacillin
Procedure: MIC of oxacillin in the presence of 0.6 μg/mL of 6c. ^bMIC of 6c in the presence of 4 μg/mL of oxacillin. The MICs were determined by the broth microdilution method by following Clinical and Laboratory Standards Institute (CLSI) guidelines.
The checkerboard assay was performed in a 96-well plate using the established method. Specifically, the antibiotic oxacillin was 2-fold serially diluted along the row-axis and 6c was 2-fold serially diluted along the column-axis to create a matrix in which each well consists of a combination of both at different concentrations. Each well was inoculated with MRSA (ATCC BAA-44) to yield approximately 5×10^5 CFU/mL in a 100-μL final volume, incubated for 20 h at 37° C. and examined for visibility to determine the MIC. Dividing the MIC of 6c in the presence of antibiotic by the MIC of 6c alone was used to calculate the fractional inhibitory concentration (FIC) of 6c. Similarly, dividing the MIC of antibiotic in the presence of 6c by the MIC of the antibiotic alone was used to calculate the fractional inhibitory concentration (FIC) of the antibiotic. The FIC index was calculated by the summation of both FIC values. The FIC index was interpreted as synergistic, additive, or antagonistic for values of x≤0.5, 0.5<x<4, or ≥4, respectively.

[2] = test system: MRSA (ATCC BAA-44 and ATCC BAA-1717); assay: microbe, parasite or virus in culture; format: cell-based, Staphylococcus aureus
Procedure: (§1) The MICs were determined by the broth microdilution method by following Clinical and Laboratory Standards Institute (CLSI) guidelines
(§2) Spectroscopic characterization and X-ray structural determination unequivocally confirmed the identities of all the five new compositions of matter, that is compounds denoted as 6a through 6e.

MRSA^vanR = assay: MIC against vancomycin-resistant mutant MRSA from day 56 passage (cross-resistance); format: cell-based; conditions: Staphylococcus aureus
Procedure: (§3) Typical clinical antibiotics can readily produce genetic mutants when used to treat the same bacterial over and over again, which is the major cause of antibiotic drug resistance in many pathogenic bacteria these days and of emergence of superbugs. To test if 6c can develop drug resistance in either MSSA (ATCC 29213) or MRSA (ATCC BAA-44), we performed sequential passaging studies with 6c. Briefly, the MIC values for S. aureus strains to be tested were determined first. Then, cells grown in the initial MIC dose of the compound or antibiotics from the previous passage were once again harvested after 24-h incubation period and assayed for a new MIC. The process was repeated for 56 passages against MRSA (ATCC BAA-44).

MRSA (ATCC BAA-44) [3] = assay: Sequential passaging drug resistance development study in MRSA; format: cell-based, Staphylococcus aureus; conditions: for MIC: Staphylococcus aureus, read-out: initial MIC
Source text: FIG. 4 is a chart showing the drug resistance development of 6c in comparison with vancomycin and ofloxacin in MRSA (ATCC BAA-44);
as §3

[4] = test system: MSSA (ATCC 29213 and ATCC 6538); assay: MIC by broth microdilution (CLSI) against MSSA; format: cell-based, Staphylococcus aureus; conditions: two strains of MSSA
Procedure: as §1, §2

[5] = test system: biofilm formed by MRSA (ATCC BAA-44); assay: Biofilm inhibition assay; format: cell-based, Staphylococcus aureus; conditions: 24 h
Procedure: FIG. 6 is a chart showing the effect of 6c on the inhibition of biofilm formed by MRSA (ATCC BAA-44). Percentage of viable bacteria in the biofilm formed by MRSA in response to the treatment of Lawsone-derivatives (6a, 6b, 6c, 6d, and 6e) at varying concentrations (0-30 μM) (mean±s·d, n=3 independent experiments);
By observing the antibacterial efficacy of 6c against planktonic phase of MRSA, we next examined whether 6c could be effective against biofilm phase of MRSA. For this, the biofilm inhibition assay was performed using the established procedure. […] For the quantification of biofilm mass, the solutions in the plate with biofilm were replaced with a 100 μL solution containing 0.5% of crystal violet and incubated for 30 min at room temperature in the dark. […] The absorbance of the biofilm was measured at 595 nm using a microplate reader and the results were expressed as percentage changes with respect to the control (without compounds). For the quantification of the number of viable bacteria in the biofilm, the biofilms were gently destroyed and plated on TSA after serial dilutions of each suspension. The number of viable bacteria in the sample was obtained using agar plate counting method as described above and results were expressed as percentage changes with respect to the control.

[6] = test system: vancomycin-intermediate and daptomycin non-susceptible strain of MRSA (ATCC 700699); assay: MIC by broth microdilution (CLSI) against vancomycin-intermediate, daptomycin non-susceptible MRSA; format: cell-based; conditions: Staphylococcus aureus, ATCC 700699 / MRSA / VISA
Procedure: as §1, §2

MRSA (ATCC BAA-44) [7] = assay: Local wound infection model, topical treatment; format: in vivo, mice (C57BL/6); conditions: single topical dose 80 μg per wound at day 1 post-infection, CFU at day 2
Procedure: FIG. 7 is a chart showing the effect of the treatment of 6c or vancomycin (via topical treatment, single dose at 80 μg per wound) on the bacterial burden in wounds of mice (C57BL/6 mice, male, 8-12 weeks old) infected by MRSA at day 2 post-wounding (mean±s·d, n=3 mice per group). The CFU counts from homogenized tissue collected from each mouse was run in duplicates. *: p<0.05 vs control;
(§4) To validate the in vivo antibacterial efficacy, we conducted the studies of treating the infections of local wound infection as well as non-lethal systemic infection induced by MRSA. For local infection, a full-thickness, circular wound was generated on the dorsal surface of each mouse (C57BL/6) using a 6-mm sterile biopsy punch after the mouse was anesthetized, followed by inoculating with 1×10^6 CFU MRSA (ATCC BAA-44) in the wounded skin at day 0 and then a defined amount of 6c or vancomycin (80 μg in 40 μL sterile saline per wound) was topically applied once to the wounds of mice at day 1 post-infection. The CFU number of viable bacteria in the wound was quantified at day 2 post-infection. […] The CFU number of viable bacteria was counted at day 2 post-infection from major organs including lung, kidney, spleen, liver, and peritoneal tissues. […]

MRSA = assay: Non-lethal systemic infection model, i.p. treatment; format: in vivo, mice (C57BL/6); conditions: single dose 15 mg/kg i.p. at day 1 post-infection, CFU at day 2; p<0.05
Source text: FIG. 8 is a chart showing the effect of the treatment of 6c (via i.p injection, […]) on the bacterial burden in lung (b), spleen (c), kidney (d), liver (e), and peritoneal (f) tissues of mice (C57BL/6 mice, male, 8-12 weeks old) infected by MRSA (mean±s·d, n=8 mice per group). The CFU counts from homogenized tissue collected from each mouse was run in duplicates. *: p<0.05, **: p<0.01, and ***: p<0.001.
as §4

MSSA (ATCC 29213) = assay: Sequential passaging drug resistance development study in MSSA; format: cell-based, Staphylococcus aureus; conditions: MSSA ATCC 29213, sequential passaging, vs vancomycin and ciprofloxacin
Source text: FIG. 5 is a chart showing the drug resistance development of 6c in comparison with vancomycin and ciprofloxacin in MSSA (ATCC SA 29213);
as §3

MRSA^oflR = assay: MIC against ofloxacin-resistant mutant MRSA from day 56 passage (cross-resistance); format: cell-based; conditions: Staphylococcus aureus
Procedure: as §3

[8] = at 56 passages (end of measurements)

Compound: CCCCc1ccc(CC2=C(O)C(=O)c3ccccc3C2=O)cc1 [6c, 2-[(4-butylphenyl)methyl]-3-hydroxy-[1,4]naphthoquinone]
- FIC index interpretation (MRSA (ATCC BAA-44) [1]): synergistic (x≤0.5)
- FIC (MRSA (ATCC BAA-44) [1]; MRSA ATCC BAA-44, 20 h): 0.31
- MIC ([2]; Staphylococcus aureus): 1.25 to 2.5 µg/mL (≈ 3.9 to 7.8 µM)
- MIC (MRSA^vanR): 5 µg/mL (≈ 15.6 µM)
- MIC (MRSA (ATCC BAA-44) [3]): 1.25 µg/mL (≈ 3.9 µM)
- increase of MIC (MRSA (ATCC BAA-44) [3]; [8]): 4 fold
- change of MIC (MRSA (ATCC BAA-44) [3]; up to 33 passages): largely unchanged
- antimicrobial activity (MIC) compared with ofloxacin and ciprofloxacin [4]: comparable
- suppression of biofilm formation ([5]; dose of 1×MIC (5 μM or 1.5 μg/mL)): 40%
- suppression of biofilm formation ([5]; dose of 3×MIC (15 μM or 4.5 μg/mL)): 90%
- MIC [6]: 1.25 to 2.5 µg/mL (≈ 3.9 to 7.8 µM)
- reduction of MRSA numbers (CFU) in the wound vs control (MRSA (ATCC BAA-44) [7]): 60%
- bacterial burdens in kidney, liver, and peritoneal tissues vs vehicle control (MRSA): significantly reduced
- drug resistance profile (MSSA (ATCC 29213)): improved drug resistance profile
- MIC (MRSA^oflR): 1.25 µg/mL (≈ 3.9 µM)

Compound: CCCCCCCCCC(=O)N[C@@H](Cc1c[nH]c2ccccc12)C(=O)N[C@H](CC(N)=O)C(=O)N[C@@H](CC(=O)O)C(=O)N[C@@H]1C(=O)NCC(=O)N[C@@H](CCCN)C(=O)N[C@@H](CC(=O)O)C(=O)N[C@H](C)C(=O)N[C@@H](CC(=O)O)C(=O)NCC(=O)N[C@H](CO)C(=O)N[C@@H]([C@H](C)CC(=O)O)C(=O)N[C@@H](CC(=O)c2ccccc2N)C(=O)O[C@@H]1C [daptomycin]
- MIC ([2]; MRSA ATCC BAA-44 and ATCC BAA-1717, broth microdilution): ~1 µg/mL (≈ 0.617 µM)

Compound: CC1COc2c(N3CCN(C)CC3)c(F)cc3c(=O)c(C(=O)O)cn1c23 (stereo not shown) [ofloxacin]
- MIC (MRSA (ATCC BAA-44) [3]): 8 µg/mL (≈ 22.1 µM)
- increase of MIC (MRSA (ATCC BAA-44) [3]; after 5 passages): 4 fold
- increase of MIC (MRSA (ATCC BAA-44) [3]; at 35 passages): 32 fold
- increase of MIC (MRSA (ATCC BAA-44) [3]; [8]): 64 fold

Compound: CN[C@H](CC(C)C)C(=O)N[C@H]1C(=O)N[C@@H](CC(N)=O)C(=O)N[C@H]2C(=O)N[C@H]3C(=O)N[C@H](C(=O)N[C@H](C(=O)O)c4cc(O)cc(O)c4-c4cc3ccc4O)[C@H](O)c3ccc(c(Cl)c3)Oc3cc2cc(c3O[C@@H]2O[C@H](CO)[C@@H](O)[C@H](O)[C@H]2O[C@H]2C[C@](C)(N)[C@H](O)[C@H](C)O2)Oc2ccc(cc2Cl)[C@H]1O [vancomycin]
- MIC ([2]; Staphylococcus aureus): ~1 µg/mL (≈ 0.69 µM)
- MIC (MRSA (ATCC BAA-44) [3]): 1 µg/mL (≈ 0.69 µM)
- increase of MIC (MRSA (ATCC BAA-44) [3]; [8]): 128 fold
- increase of MIC (MRSA (ATCC BAA-44) [3]; by 51 passages): 4 fold
- reduction of MRSA numbers (CFU) in the wound vs control (MRSA (ATCC BAA-44) [7]): ~50%
